Assay results as given in PubChem BioAssay AID1996.
Converted amounts (≈) assume the structure as drawn.

conditions: buffer; pH 7.4; 200.0 µM

O=C(Cc1ccccc1)NCC(=O)OCc1ccccc1F and O=C(O)c1ccc(S(=O)(=O)N(Cc2ccccc2)Cc2ccccc2)cc1 are within 1.5-fold of each other in solubility kinetic: 17.3 µg/mL (≈ 57.4 µM) for the first, 19.5 µg/mL (≈ 51.1 µM) for the second.

COC(=O)C(=CC(=CN(C)C)C=C(C(=O)OC)C(=O)OC)C(=O)OC and C/C(N)=C(/C#N)C(=O)COC(=O)c1cccc(O)c1 cannot be ordered by solubility kinetic: greater than 53.3 µg/mL for the first, greater than 39 µg/mL for the second.

CN(CC(=O)Nc1c(F)cccc1F)Cc1cccs1 and COc1ccc(NC(=O)c2cccs2)cn1 cannot be ordered by solubility kinetic: greater than 44.5 µg/mL for the first, greater than 35.1 µg/mL for the second.

Compared with Cc1cc(C)nc(NC(=O)c2cccc(Br)c2)n1, Cc1cccc(NC(=O)CSc2ncnc3sc(C)cc23)c1 is 57-fold lower in solubility kinetic: 39.8 µg/mL (≈ 130 µM) for the first, 0.7 µg/mL (≈ 2.12 µM) for the second.

CC(=O)NC(CC(=O)O)c1ccccc1 (stereo not drawn) and O=C(CC(c1ccccc1)c1ccccc1O)N1CCCCC1 (stereo not drawn) cannot be ordered by solubility kinetic: greater than 31.1 µg/mL for the first, greater than 46.4 µg/mL for the second.

Going from O=C(Nc1ccc2c(c1)CCC2)c1cnc(Cl)c(Cl)c1 to CC(=O)Nc1ccccc1C(=O)C(=O)Nc1ccc(F)c(Cl)c1, the solubility kinetic rises from less than 0.3 µg/mL to 2.4 µg/mL (≈ 7.17 µM).

Going from COCCNC(=O)Cn1nc(-c2ccc(C)cc2)ccc1=O to COc1ccc(CCNC(=O)c2ccc(Br)cc2)cc1, the solubility kinetic falls from greater than 45.2 µg/mL to 1.3 µg/mL (≈ 3.89 µM).

COCC(C)n1c(C)cc(C(=O)COC(=O)c2nn(C)c(=O)c3ccccc23)c1C (stereo not drawn) and CCC(Oc1ccccc1OC)C(=O)Nc1ccc2c(c1)n(C)c(=O)n2C (stereo not drawn) cannot be ordered by solubility kinetic: greater than 61.7 µg/mL for the first, greater than 55.4 µg/mL for the second.

Going from O=P(C(=NCCO)NO)(N1CCOCC1)N1CCOCC1 to c1ccc(N2CCN(C3CC4CCC3C4)CC2)cc1 (stereo not drawn), the solubility kinetic falls from greater than 48.3 µg/mL to 27.1 µg/mL (≈ 106 µM).

Compared with C=CCCCCCCCCC(=O)Nc1ncccn1, CC(=O)CCc1ccc(OCCCOc2cccc3cccnc23)cc1 is 3.8-fold higher in solubility kinetic: 6.8 µg/mL (≈ 26 µM) for the first, 25.5 µg/mL (≈ 73 µM) for the second.

Cc1ccc2nc(N3C(=O)CNC3=S)sc2c1 and Cn1cccc1-c1nc2ccc([N+](=O)[O-])cc2[nH]1 are within 1.5-fold of each other in solubility kinetic: 11.9 µg/mL (≈ 45.2 µM) for the first, 15.2 µg/mL (≈ 62.7 µM) for the second.

CC1CCCC(C)N1C(=O)COC(=O)/C=C/c1ccc(Br)o1 (stereo not drawn) and CC1CCCN(C(=O)NC(=O)c2ccc(Cl)cc2)C1 (stereo not drawn) are within 1.5-fold of each other in solubility kinetic: 29.8 µg/mL (≈ 80.5 µM) for the first, 41.8 µg/mL (≈ 149 µM) for the second.

Cc1ccc(CNC(=O)C2CSC3(C)CCC(=O)N23)cc1 (stereo not drawn) and CC(C)CCNC(=O)C1CC(=O)N(CCc2ccccc2)C1 (stereo not drawn) cannot be ordered by solubility kinetic: greater than 45.7 µg/mL for the first, greater than 45.4 µg/mL for the second.

O=C(O)CSCC(=O)NCc1c(Cl)cccc1Oc1ccccc1 and CCOc1cccc(/C=N/NC(=O)c2cccnc2)c1O cannot be ordered by solubility kinetic: 52 µg/mL (≈ 142 µM) for the first, greater than 42.8 µg/mL for the second.

Compared with Cc1c(C)n(CC(O)CN2CCN(C)CC2)c2ccccc12 (stereo not drawn), C=CCn1c(C(CC)CC)nc2ccccc21 is 1.6-fold lower in solubility kinetic: 43.3 µg/mL (≈ 144 µM) for the first, 27.9 µg/mL (≈ 122 µM) for the second.

Compared with CC(C)c1ccc(NC(=S)NCc2ccc3c(c2)OCO3)cc1, CC(=O)c1ccc(OCC(C)Oc2ccc(C#N)cc2)cc1 (stereo not drawn) is 4.8-fold higher in solubility kinetic: 4.9 µg/mL (≈ 14.9 µM) for the first, 23.3 µg/mL (≈ 78.9 µM) for the second.

Going from O=C(Nc1ccccc1)/C(=C1\CCCN1)[N+](=O)[O-] to O=C(NC(=S)Nc1ccccc1N1CCCC1)c1cccs1, the solubility kinetic falls from 29.6 µg/mL (≈ 120 µM) to 3.2 µg/mL (≈ 9.65 µM) (9.2-fold).

Going from CCOc1ccc(C(=O)N2CCN(c3ncccn3)CC2)cc1 to Cc1onc(-c2ccccc2Cl)c1C(=O)N1CCCCC1, the solubility kinetic rises from 42.3 µg/mL (≈ 135 µM) to greater than 45.7 µg/mL.

CC(Sc1nnc(Cc2ccccc2)o1)C(=O)NC1(C#N)CCCCC1 (stereo not drawn) and CC1SCC(=O)N(CC(=O)NCCc2ccccc2)C1=O (stereo not drawn) cannot be ordered by solubility kinetic: greater than 55.6 µg/mL for the first, greater than 46 µg/mL for the second.

First: COc1cccc(CNC(=O)COC(=O)C23CC4CC(CC(Cl)(C4)C2)C3)c1
Second: CC1(C)CC(=O)C(CC(=O)NC2CCCc3ccccc32)C(=O)C1 (stereo not drawn)
The solubility kinetic of the first is lower: 21.1 µg/mL (≈ 53.8 µM) for the first, greater than 49.1 µg/mL for the second.

Going from O=c1[nH]c(/C=C/c2ccccc2)c([N+](=O)[O-])c(=O)[nH]1 to O=[N+]([O-])c1ccccc1CN1CC=C(c2ccc(F)cc2)CC1, the solubility kinetic falls from greater than 38.9 µg/mL to 2.3 µg/mL (≈ 7.36 µM).

Going from Cc1ccc(Cl)cc1NC(=O)CC1NC2CCCCC2NC1=O (stereo not drawn) to O=C(CCN1C(=O)c2cccc3cccc(c23)C1=O)NCC1CCCO1 (stereo not drawn), the solubility kinetic rises from 38.6 µg/mL (≈ 115 µM) to greater than 52.9 µg/mL.

COc1ccc2nc(-c3ccccn3)[nH]c2c1 and CCc1ccccc1S(=O)(=O)c1c(C)cc(C)nc1Cl are within 1.5-fold of each other in solubility kinetic: 24.8 µg/mL (≈ 110 µM) for the first, 24.3 µg/mL (≈ 78.4 µM) for the second.

Cc1ccccc1NC(=S)NC12CN3CN(CN(C3)C1)C2 and COc1ccc(C(=O)NCCCn2ccnc2)cc1[N+](=O)[O-] cannot be ordered by solubility kinetic: greater than 45.5 µg/mL for the first, greater than 45.6 µg/mL for the second.
